“And” between values parts separate entries of the source, which are not always exact repeats. Equal values may be shown once.
Target: SARS-CoV-2 Main Protease (SARS-CoV-2) (UniProt P0DTD1)

Row | SMILES | IC50
1 | Cc1nnn(-c2ccc(N(C(=O)c3cocn3)C(C(=O)NCCc3cccc(F)c3)c3cccnc3)cc2)n1 (centres undefined) | 33.2 µM
2 | O=C(c1cc(=O)[nH]c2ccccc12)N1CCN(c2cccc(Cl)c2)C(=O)C1 | 15.8 µM
3 | CN(C)CC1(C(=O)Nc2cncc3ccccc23)CCOc2ccc(Cl)cc21 (centres undefined) | 11.5 µM
4 | NS(=O)(=O)c1n[nH]cc1C(=O)NC[C@@]1(C(=O)Nc2cncc3ccccc23)CCOc2ccc(Cl)cc21 (stereo in doubt) | 1.99 µM
5 | Cn1c(=O)[nH]c2cncc(NC(=O)C3CCOc4ccc(Cl)cc43)c21 (centres undefined) | 20.7 µM
6 | CCOC(=O)CCNC(=O)C(c1cccnc1)N(C(=O)c1cocn1)c1ccc(C(C)(C)C)cc1 (centres undefined) | 2.8 µM
7 | Cc1cc(O)cc(C)c1C[C@H](NC(=O)[C@H](N)CCCNC(=N)N)C(=O)N[C@@H](CCCCN)C(=O)N[C@@H](Cc1ccccc1)C(N)=O (stereo in doubt) | > 99 µM
8 | Cc1cccc(C)c1N(C(=O)CN1CCNCC1)c1cc(Cl)cc(CC(=O)Nc2cncc3ccccc23)c1 | 2.74 µM
9 | Cn1cc(CN2Cc3ccc(Cl)cc3C(C(=O)Nc3cncc4ccc(F)cc34)C2)nn1 (centres undefined) | 0.914 µM
10 | CC(C)(C)c1ccc(N(C(=O)c2ocnc2C(F)(F)F)C(C(=O)NCCc2cccc(F)c2)c2cccnc2)cc1 (centres undefined) | > 99.5 µM
11 | O=C(Nc1ccncc1)[C@@H](c1ccccc1)N1Cc2ccccc2C1=O (stereo in doubt) | > 99.5 µM
12 | O=C(NCCO)c1ccc(N(C(=O)c2cocn2)C(C(=O)NCCc2cccc(F)c2)c2cccnc2)cc1 (centres undefined) | > 99.5 µM
13 | O=C(Cc1cc(Cl)cc(Nc2cc(C(F)(F)F)ccc2Cl)c1)Nc1cncc2ccccc12 | 1.61 µM
14 | CNC(=O)N1CCc2ccc(Cl)cc2C1C(=O)Nc1cncc2ccccc12 (centres undefined) | 2.47 µM
15 | O=C(Nc1cncc2cc(CN3CCNCC3)ccc12)C1CCOc2ccc(Cl)cc21 (centres undefined) | 1.83 µM
16 | COc1ccc(N(C(=O)c2cnc[nH]2)C(C(=O)NCCc2cccc(F)c2)c2cccnc2)cc1 (centres undefined) | 93.7 µM
17 | O=C(Cc1ccncc1Cl)Nc1cncc2ccccc12 | 52.6 µM
18 | Cc1cccc(C2CCCCN2C(=O)C(C)c2cncnc2)c1C (centres undefined) | > 99.5 µM
19 | CS(=O)(=O)c1ccc2c(N3CCC4(CN(S(=O)(=O)CC5(C#N)CC5)Cc5ccc(Cl)cc54)C3=O)cncc2c1 (centres undefined) | 0.103 µM
20 | CC(C)(C)c1ccc(N(C(=O)c2ncc[nH]2)C(C(=O)NCCc2cccc(F)c2)c2cccnc2)cc1 (centres undefined) | 5.29 µM
21 | CN(Cc1cccc(Cl)c1)C(=O)Cn1nnc2ccccc21 | > 99.5 µM
22 | Cc1ccncc1N1CCN(c2cccc(Cl)c2)C1=O | 81.7 µM
23 | O=C1NC[C@H](C(=O)Nc2cncc3ccccc23)c2cc(Cl)ccc21 (stereo in doubt) | 0.185 µM

Row | SMILES | IC50
24 | O=C(CCl)N1CCN(Cc2cccs2)CC1 | 5.66 µM and 6.77 µM
25 | O=C(Cc1cccc(Cl)c1)Nc1cncc2cccc(Cl)c12 | 0.594 µM
26 | COC1(CS(=O)(=O)N2Cc3ccc(Cl)cc3C(C(=O)Nc3cncc4ccc(C(C)(C)O)cc34)C2)CC1 (centres undefined) | 1.77 µM
27 | CC1(C(=O)Nc2cncc3c2CCCC3)CNS(=O)(=O)c2ccc(Cl)cc21 (centres undefined) | > 99.5 µM
28 | O=C(Cc1cncc2ccccc12)N(CCC1CCCCC1)c1cccc(Cl)c1 | 2.11 µM
29 | Cc1nccn1-c1ccc(Nc2cc(Cl)cc(CC(=O)Nc3cncc4ccccc34)c2)cc1 | 2.48 µM
30 | O=C(Cc1cc(Cl)cc(Nc2cc(Br)cc(C(F)(F)F)c2)c1)Nc1cncc2ccccc12 | 1.87 µM
31 | NS(=O)(=O)NCCNS(=O)(=O)c1ccccc1[N+](=O)[O-] | > 99.5 µM
32 | Cc1nccn1Cc1ccc2c(NC(=O)C3CCOc4ccc(Cl)cc43)cncc2c1 (centres undefined) | 5.32 µM
33 | COC(=O)CNC(=O)C(c1cccnc1)N(C(=O)c1cocn1)c1ccc(C(C)(C)C)cc1 (centres undefined) | 10.8 µM
34 | O=C(Cc1cc(Cl)cc(N[C@H]2C(O)O[C@H](CO)[C@@H](O)[C@@H]2O)c1)Nc1cncc2ccccc12 (stereo in doubt) | 2.92 µM
35 | CC(C)(C)c1ccc(N(C(=O)c2c[nH]c(=O)s2)C(C(=O)NCCc2cccc(F)c2)c2cccnc2)cc1 (centres undefined) | 29.1 µM
36 | CC(C)NS(=O)(=O)N1Cc2ccc(Cl)cc2C(C(=O)Nc2cncc3ccccc23)C1 (centres undefined) | 0.195 µM
37 | O=C(Cc1cc(Cl)cc(Nc2nnc(Cl)cc2Br)c1)Nc1cncc2ccccc12 | 1.81 µM
38 | CCCCOc1ccc(Cl)cc1CC(=O)Nc1cnccc1C | 24.8 µM
39 | O=C(Cc1cccc(Cl)c1)Nc1nnc2ccccn12 | > 99.5 µM
40 | COC1(C(=O)Nc2cncc3ccncc23)CCOc2ccc(Cl)cc21 (centres undefined) | 0.832 µM
41 | O=C(Nc1cncc2ccccc12)C1(CO)CCOc2ccc(Cl)cc21 (centres undefined) | 1.09 µM
42 | O=C(c1cc(=O)[nH]c2ccccc12)N1CCN(Cc2ccccc2)CC1 | 8.76 µM
43 | O=C1CC2(CCOc3ccc(Cl)cc32)CN1c1cncc2ccccc12 (centres undefined) | 6.74 µM
44 | O=C(Nc1cncc2ccccc12)C1CN(S(=O)(=O)N2CCCC2CO)Cc2ccc(Cl)cc21 (centres undefined) | 1.14 µM
45 | Nc1nc2[nH]cnc2c(=O)n1-c1cc(Cl)cc(CC(=O)Nc2cncc3ccccc23)c1 | 1.86 µM
46 | O=C(Nc1cncc2ccccc12)C1CCOc2c(O)cc(Cl)cc21 (centres undefined) | 0.579 µM

Row | SMILES | IC50
47 | CC(C)(C)c1ccc(N(C(=O)c2ccno2)C(C(=O)NCCc2cccc(F)c2)c2cccnc2)cc1 (centres undefined) | 1.11 µM
48 | CN(CCO)C1CCN(C(=O)CC2(C(=O)Nc3cncc4ccccc34)CCOc3ccc(Cl)cc32)CC1 (centres undefined) | 37.6 µM
49 | O=C(NCCc1cccc(F)c1)C(c1cccnc1)N(C(=O)c1ccco1)C1CCCC(c2ccc(F)c(F)c2)C1 (centres undefined) | > 99.5 µM
50 | O=CNc1ccc(C(=O)NC(c2ccccc2)C2CCOCC2)cc1 (centres undefined) | > 99.5 µM
51 | CC(C)(C)c1ccc(N(C(=O)c2ccn[nH]2)C(C(=O)NCCc2cccc(F)c2)c2cccnc2)cc1 (centres undefined) | 1.78 µM
52 | CC(C)(C)c1ccc(N(C(=O)c2cc(=O)[nH]c(=O)[nH]2)C(C(=O)NCCc2cccc(F)c2)c2cccnc2)cc1 (centres undefined) | > 99.5 µM
53 | Cc1ccncc1NC(=O)Cc1cc(Cl)cc(NC2CCC(F)(F)C2O)c1 (centres undefined) | 23 µM
54 | Cn1ccn2c(CNc3nc4ccccc4s3)nnc2c1=O | > 99.5 µM
55 | O=[N+]([O-])c1cnc(Sc2nnc(-c3ccco3)n2-c2ccc(OCc3ccccc3)cc2)s1 | 7.3 µM
56 | CC(C)(C)c1ccc(N(C(=O)c2cc(=O)c3c(O)cccc3o2)C(C(=O)NCCc2cccc(F)c2)c2cccnc2)cc1 (centres undefined) | > 99.5 µM
57 | O=C(Cc1cc(Cl)cc(Nc2ncccc2C(F)(F)F)c1)Nc1cncc2ccccc12 | 1.94 µM
58 | O=C(NCC1(C(=O)Nc2cncc3ccccc23)CCOc2ccc(Cl)cc21)C1COCCN1CC(F)(F)F (centres undefined) | 17.1 µM and 27.2 µM
59 | O=C(Nc1cncc2cc(Cl)ccc12)C12CC(C1)Oc1ccc(Cl)cc12 | > 99.5 µM
60 | Cc1ccc(-c2ccc(C(=O)N3CC[C@H](N)C3)c(F)c2)cc1 (stereo in doubt) | > 99.5 µM
61 | CNCC1CCCN(C(=O)[C@@H](c2ccccc2)N2Cc3ccccc3C2=O)C1 (stereo in doubt) | > 99.5 µM
62 | O=C(Nc1cncc2ccccc12)C(CO)c1ccc(Cl)c(Cl)c1 (centres undefined) | 19.3 µM
63 | CC(C)(C)OC(=O)N1CC(NC(=O)C(c2cccnc2)N(C(=O)c2cocn2)c2ccc(C(C)(C)C)cc2)C1 (centres undefined) | 6.91 µM
64 | CC1(C(=O)Nc2cncc3ccccc23)CN(S(=O)(=O)CC2(C#N)CC2)Cc2ccc(Cl)cc21 (centres undefined) | 0.096 µM
65 | O=C(NCCc1cccc(F)c1)C(c1cccnc1)N(C(=O)c1cocn1)c1ccc(OC2CCOC2)cc1 (centres undefined) | 6.32 µM
66 | O=S(=O)(Nc1ccccc1)c1cc2c(cc1OCc1ccccc1)OCO2 | 72.8 µM
67 | CNC(=O)CN1CC(C(=O)Nc2cncc3ccc(S(C)(=O)=O)cc23)c2cc(Cl)ccc2C1=O (centres undefined) | 0.33 µM
68 | O=C(Nc1cncc2ccccc12)C1COCc2ccc(Cl)cc21 (centres undefined) | 8.08 µM
69 | CS(=O)(=O)c1ccc2cncc(NC(=O)C3CNC(=O)c4c(F)cc(F)cc43)c2c1 (centres undefined) | 3.6 µM

Source: the COVID Moonshot data (paper PMC7615835)
